US10344019B2 (priority 2010, dated 2019)

Key:
Assay type in all cases: cell-based
[1] = test system: HCV 2a Rluc cells (NS5A chimeric genotype 2a JFH-1 replicon with genotype 2a J6 strain NS5A gene, M31 present); test: HCV replicon reporter assay, genotype 2a J6 (M31 present); settings: Hepatitis C virus, read-out: 2a J6
Summary of the method: (§1)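 Renilla luciferase HCV replicon cells: dicistronic 1b Con1, 1a H77 or 2a JFH-1 replicons, or a JFH-1 chimera carrying J6 NS5A (M31 present). Compound in DMSO serial dilutions, 72 h incubation, then lysis and luciferase read. EC50 by non-linear regression.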

[2] = test system: HCV 1a RLuc cells (dicistronic genotype 1a H77 replicon, RLuc reporter); test: microbe, parasite or virus in culture; settings: Hepatitis C virus, genotype 1a replicon; read-out: 1a
Summary of the method: as §1

[3] = test system: HCV 1b RLuc cells (dicistronic genotype 1b Con1 replicon, RLuc reporter); test: microbe, parasite or virus in culture; settings: Hepatitis C virus, read-out: 1b (nM)
Summary of the method: as §1

[4] = test system: HCV 2b Rluc cells (NS5A chimeric genotype 2a JFH-1 replicon with genotype 2b MD2b-1 NS5A gene, M31 present); test: microbe, parasite or virus in culture; settings: Hepatitis C virus, read-out: 2b
Summary of the method: (§2)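 Replicon cells stably carrying the listed RLuc-encoding dicistronic replicons were seeded and treated with DMSO serial dilutions of compound (10 mM stocks) diluted into culture medium. After 72 h, cells were lysed and Renilla luciferase activity measured. EC50 was derived by non-linear regression.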

[5] = test system: HCV 4a Rluc cells (NS5A chimeric genotype 1b Con1 replicon with genotype 4a NS5A gene); test: microbe, parasite or virus in culture; settings: Hepatitis C virus, read-out: 4a
Summary of the method: as §2

[6] = test system: HCV 2a JFH-1 Rluc cells (dicistronic genotype 2a JFH-1 replicon, RLuc reporter); test: microbe, parasite or virus in culture; settings: Hepatitis C virus, genotype 2a JFH-1 replicon; read-out: 2a JFH
Summary of the method: as §1

[7] = test system: HCV 3a RLuc cells (NS5A chimeric genotype 1b Con1 replicon with consensus genotype 3a NS5A gene); test: microbe, parasite or virus in culture; settings: Hepatitis C virus, read-out: 3a, genotype 3a replicon
Summary of the method: as §2

SMILES	EC50 [1]	EC50 [2]	EC50 [3]	EC50 [4]	EC50 [5]	EC50 [6]	EC50 [7]
COC[C@H]1C[C@@H](c2ncc(-c3ccc(-c4ccc5c(ccc6nc([C@@H]7C[C@H](COC)CN7C(=O)[C@@H](NC(=O)OC)C(C)C)[nH]c65)c4)cc3)[nH]2)N(C(=O)[C@@H](NC(=O)OC)C(C)C)C1 [Example 440]	0.001 to 0.999 nM	0.001 to 0.999 nM	0.048 nM	1 to 44 nM	0.001 to 0.99 nM	0.001 to 0.999 nM	1 to 4.99 nM
COC[C@H]1C[C@@H](c2ncc(-c3ccc(-c4ccc5c(ccc6nc([C@@H]7CCCN7C(=O)[C@@H](NC(=O)OC)C(C)C)[nH]c65)c4)cc3)[nH]2)N(C(=O)[C@@H](NC(=O)OC)C(C)C)C1 [Example 441]	1 to 44 nM	0.001 to 0.999 nM	0.03 nM	> 44 nM	0.001 to 0.99 nM	0.001 to 0.999 nM	0.001 to 0.99 nM
COC[C@H]1C[C@@H](c2ncc(-c3ccc(-c4ccc5c(ccc6nc([C@@H]7CCCN7C(=O)[C@H](NC(=O)OC)c7ccccc7)[nH]c65)c4)cc3)[nH]2)N(C(=O)[C@@H](NC(=O)OC)C(C)C)C1 [Example 442]	0.001 to 0.999 nM	0.001 to 0.999 nM	0.029 nM	0.001 to 0.999 nM	0.001 to 0.99 nM	0.001 to 0.999 nM	0.001 to 0.99 nM
O=C(N[C@@H](C(=O)N1CCC[C@H]1c1ncc(-c2cc3c4c(c2)OCc2cc(-c5cnc([C@@H]6CCCN6C(=O)[C@H](NC(=O)C6CC6)c6ccccc6)[nH]5)cc(c2-4)OC3)[nH]1)c1ccccc1)C1CC1 [Example 443]	0.001 to 0.999 nM	0.001 to 0.999 nM	0.167 nM	0.001 to 0.999 nM	0.001 to 0.99 nM	0.001 to 0.999 nM	0.001 to 0.99 nM
COC1CN(C(C(=O)N2CCC[C@H]2c2ncc(-c3cc4c5c(c3)OCc3cc(-c6cnc([C@@H]7CCCN7C(=O)C(c7ccccc7)N7CC(OC)C7)[nH]6)cc(c3-5)OC4)[nH]2)c2ccccc2)C1 (stereo partly drawn) [Example 444]	1 to 44 nM	1 to 44 nM	1.76 nM	1 to 44 nM	1 to 4.99 nM	0.001 to 0.999 nM	0.001 to 0.99 nM
O=C(C(c1ccccc1)N1CCCOCC1)N1CCC[C@H]1c1ncc(-c2cc3c4c(c2)OCc2cc(-c5cnc([C@@H]6CCCN6C(=O)C(c6ccccc6)N6CCCOCC6)[nH]5)cc(c2-4)OC3)[nH]1 (stereo partly drawn) [Example 445]	1 to 44 nM	1 to 44 nM	0.336 nM	1 to 44 nM	0.001 to 0.99 nM	0.001 to 0.999 nM	0.001 to 0.99 nM
CNC(=O)N[C@@H](C(=O)N1CCC[C@H]1c1ncc(-c2cc3c4c(c2)OCc2cc(-c5cnc([C@@H]6CCCN6C(=O)[C@H](NC(=O)NC)c6ccccc6)[nH]5)cc(c2-4)OC3)[nH]1)c1ccccc1 [Example 447]	0.001 to 0.999 nM	1 to 44 nM	2.05 nM	0.001 to 0.999 nM	0.001 to 0.99 nM	0.001 to 0.999 nM	0.001 to 0.99 nM
COCCOC(=O)N[C@@H](C(=O)N1CCC[C@H]1c1ncc(-c2cc3c4c(c2)OCc2cc(-c5cnc([C@@H]6CCCN6C(=O)[C@H](NC(=O)OCCOC)c6ccccc6)[nH]5)cc(c2-4)OC3)[nH]1)c1ccccc1 [Example 448]	1 to 44 nM	0.001 to 0.999 nM	0.459 nM	0.001 to 0.999 nM	0.001 to 0.99 nM	0.001 to 0.999 nM	0.001 to 0.99 nM
O=C(N[C@@H](C(=O)N1CCC[C@H]1c1ncc(-c2cc3c4c(c2)OCc2cc(-c5cnc([C@@H]6CCCN6C(=O)[C@H](NC(=O)C6CCC6)c6ccccc6)[nH]5)cc(c2-4)OC3)[nH]1)c1ccccc1)C1CCC1 [Example 449]	0.001 to 0.999 nM	0.001 to 0.999 nM	0.139 nM	0.001 to 0.999 nM	0.001 to 0.99 nM	0.001 to 0.999 nM	0.001 to 0.99 nM
CCC(=O)N[C@@H](C(=O)N1CCC[C@H]1c1ncc(-c2cc3c4c(c2)OCc2cc(-c5cnc([C@@H]6CCCN6C(=O)[C@H](NC(=O)CC)c6ccccc6)[nH]5)cc(c2-4)OC3)[nH]1)c1ccccc1 [Example 450]	0.001 to 0.999 nM	0.001 to 0.999 nM	0.427 nM	0.001 to 0.999 nM	0.001 to 0.99 nM	0.001 to 0.999 nM	0.001 to 0.99 nM
COC[C@H]1C[C@@H](c2nc3ccc4cc(-c5ccc6c(ccc7nc([C@@H]8[C@@H]9CC[C@@H](C9)N8C(=O)[C@@H](NC(=O)OC)C(C)C)[nH]c76)c5)ccc4c3[nH]2)N(C(=O)[C@H](NC(=O)OC)c2ccccc2)C1 [Example 451]	0.001 to 0.999 nM	0.001 to 0.999 nM	0.07 nM	0.001 to 0.999 nM	0.001 to 0.99 nM	0.001 to 0.999 nM	0.001 to 0.99 nM
COC[C@H]1C[C@@H](c2nc3ccc4cc(-c5ccc6c(ccc7nc([C@@H]8[C@@H]9CC[C@@H](C9)N8C(=O)[C@H](NC(=O)OC)c8ccccc8)[nH]c76)c5)ccc4c3[nH]2)N(C(=O)[C@@H](NC(=O)OC)C(C)C)C1 [Example 452]	0.001 to 0.999 nM	0.001 to 0.999 nM	0.047 nM	1 to 44 nM	0.001 to 0.99 nM	0.001 to 0.999 nM	0.001 to 0.99 nM
COC(=O)N[C@H](C(=O)N1CCC[C@H]1c1nc2ccc3cc(-c4ccc5c(ccc6nc([C@@H]7[C@H]8CC[C@H](C8)N7C(=O)[C@H](NC(=O)C7CC7)c7ccccc7)[nH]c65)c4)ccc3c2[nH]1)C(C)C [Example 455]	0.001 to 0.999 nM	0.001 to 0.999 nM	0.029 nM	0.001 to 0.999 nM	0.001 to 0.99 nM	0.001 to 0.999 nM	0.001 to 0.99 nM
COC[C@H]1C[C@@H](c2ncc(-c3ccc(-c4ccc5c(ccc6nc([C@@H]7CCCN7C(=O)[C@@H](NC(=O)OC)C(C)C)[nH]c65)c4)cc3)[nH]2)N(C(=O)[C@H](NC(=O)C2CC2)c2ccccc2)C1 [Example 456]	0.001 to 0.999 nM	0.001 to 0.999 nM	0.04 nM	0.001 to 0.999 nM	0.001 to 0.99 nM	0.001 to 0.999 nM	0.001 to 0.99 nM
COC(=O)N[C@H](C(=O)N1CCC[C@H]1c1nc2ccc3c(F)c(-c4ccc5c(ccc6nc([C@@H]7CCCN7C(=O)[C@@H](NC(=O)OC)C(C)C)[nH]c65)c4F)ccc3c2[nH]1)C(C)C [Example 457]	> 44 nM	0.001 to 0.999 nM	0.009 nM	> 44 nM	0.001 to 0.99 nM	0.001 to 0.999 nM	0.001 to 0.99 nM
COC[C@H]1C[C@@H](c2ncc(-c3ccc(-c4ccc5c(c4)OCc4nc([C@@H]6CCCN6C(=O)[C@@H](NC(=O)OC)C(C)C)[nH]c4-5)cc3)[nH]2)N(C(=O)[C@@H](NC(=O)OC)C(C)C)C1 [Example 458]	> 44 nM	0.001 to 0.999 nM	0.085 nM	> 44 nM	0.001 to 0.99 nM	0.001 to 0.999 nM	1 to 4.99 nM
COC(=O)N[C@H](C(=O)N1[C@@H](C)CC[C@H]1c1ncc(-c2cc3c4c(c2)OCc2cc(-c5cnc([C@@H]6CC[C@H](C)N6C(=O)[C@@H](NC(=O)OC)C(C)C)[nH]5)cc(c2-4)OC3)[nH]1)C(C)C [Example 460]	1 to 44 nM	0.001 to 0.999 nM	0.018 nM	0.001 to 0.999 nM	0.001 to 0.99 nM	0.001 to 0.999 nM	0.001 to 0.99 nM
COC(=O)N[C@@H](C(=O)N1[C@@H](C)CC[C@H]1c1ncc(-c2cc3c4c(c2)OCc2cc(-c5cnc([C@@H]6CC[C@H](C)N6C(=O)[C@H](NC(=O)OC)c6ccccc6)[nH]5)cc(c2-4)OC3)[nH]1)c1ccccc1 [Example 461]	1 to 44 nM	0.001 to 0.999 nM	0.02 nM	0.001 to 0.999 nM	0.001 to 0.99 nM	0.001 to 0.999 nM	0.001 to 0.99 nM
